According to ChEMBL document CHEMBL3507680, “University of Dundee, Gates Library screen for HepG2 cell viability”:

Assay: Human HepG2 cell viability assay in 384 well format
Format: toxicity, cell-based
Parameters: dose 125 nL, time 70.5 hour; cytotoxicity at 70.5 h: concentration not given beside the values
Details: HepG2 cells, read-out: Inhibition

| SMILES | cytotoxicity at 70.5 h [%] |
| --- | --- |
| C1CCC(OCCN2CCN(CCOC3CCCCC3)CC2)CC1 | -5.88 |
| COCc1nc(CN2CC(Cc3ccccc3)CC2=O)no1 (stereo unspecified) | -8.93 |
| CCOC(=O)N1CCN(c2nc(C)ncc2CC)CC1 | 1.02 |
| Cc1cccc(C(=O)N2CCCCC2c2nc3cc(F)ccc3[nH]2)n1 (stereo unspecified) | -11.8 |
| Cc1ncc(CC(=O)N2C[C@@H]3CC[C@H](C2)N(CC2CCC2)C3)c(=O)[nH]1 | -17.8 |
| CCO[C@H]1C[C@@H](O)C12CCN(C1CCN(c3ccccc3C)CC1)CC2 | 3.61 |
| Cc1cccc(CN2CCN(c3ncnc4[nH]ccc34)CC2CCO)n1 (stereo unspecified) | -3.92 |
| Cc1nn(C)cc1C(=O)N1CCCn2nc(CN3CC[C@H](F)C3)cc2C1 | 6.52 |
| CC1(c2ccccc2)CCCN(C(=O)c2ccn3nnnc3c2)C1 (stereo unspecified) | -0.523 |
| N#Cc1c(C2CCOC2)cc(-c2ccc(N3CCCCC3)cc2)nc1N (stereo unspecified) | -7.42 |
| c1ccc(CN2CCN(C3CCOC4(CCOCC4)C3)CC2)nc1 (stereo unspecified) | -16.9 |
| Nc1cc(C(=O)N2CCOC(Cc3cccc(C(F)(F)F)c3)C2)ccn1 (stereo unspecified) | -7.49 |
| CCn1cc(CN2CCN(Cc3cc(C)cc(C)c3)C(=O)C2)cc1C#N | 15.6 |
| CCOc1cccc(C(=O)N2CCC3(CC2)[C@H](O)C[C@@H]3OC)c1 | 0.338 |
| CC(C)N1CCC(CC(=O)NCc2cc(O)ncn2)CC1 | -2.08 |
| C[C@@H]1CN(Cc2cn(C)nc2-c2ccccc2F)C[C@H](C)O1 | -11.3 |
| Cc1ccccc1C(C(=O)N(C)CCc1cn[nH]c1)N(C)C (stereo unspecified) | -7.29 |
| O=C(C1CCCC1)N1CCN(Cc2ccncc2)[C@@H]2CS(=O)(=O)C[C@@H]21 | -5.83 |
| CCn1nc(C(C)C)cc1C(=O)NCC1CCCN(c2ccccn2)C1 (stereo unspecified) | -6.28 |
| O=C(c1cnn[nH]1)N(CCCO)Cc1cccnc1 | 1.99 |
| Cc1cc(-n2cccn2)ccc1CN1CCC(O)(CN2CCCCC2)C1 (stereo unspecified) | 1.06 |
| Cc1noc(C)c1CCCNC(=O)C1CCN(C(=O)C2CCC2)CC1 | 5.79 |
| Cc1nc(C)c(C)c(N2CCC3(CCN(C)C3)C2)n1 (stereo unspecified) | -8.86 |

| SMILES | cytotoxicity at 70.5 h [%] |
| --- | --- |
| COCCC(=O)NCc1cccnc1-n1cnc2ccccc21 | 6.94 |
| O=S1(=O)CCC(CNc2cc(-c3ccccc3)nc3ccnn23)C1 (stereo unspecified) | -9.95 |
| CCSc1ccc(C(=O)N2CCC3(CCC(=O)N(C)C3)CC2)s1 | -9.54 |
| CCc1nc(C)c(CC(=O)N2CCC3(CC2)OCCCC3O)c(=O)[nH]1 (stereo unspecified) | -6.44 |
| CN1CCN(Cc2ccc(-c3ccc(C(N)=O)cc3)nc2)CC1 | -7.94 |
| COCCN(C)C[C@@H]1CN(C(=O)c2ccc(C)cc2)C[C@@H]1CO | -9.29 |
| COc1nc2c(cc1C(=O)N1CCCC1c1ccccn1)CCC2 (stereo unspecified) | 1.54 |
| COc1ccc(NC(=O)c2ccc(CN3CC[C@H](O)C3)cc2)c(OC)n1 | -7.69 |
| COCc1ccc(C(=O)N2CCCN(Cc3ccc(F)cc3)CC2)s1 | 30.1 |
| CS(=O)(=O)NCC(=O)NCc1cccnc1-n1cnc2ccccc21 | 17.2 |
| COc1ccc(F)c(CN2CCCC(O)(CNCC(C)(C)C)C2=O)c1 (stereo unspecified) | 13.1 |
| COCCC1CCCCN1C(=O)c1coc(COc2ccccc2F)n1 (stereo unspecified) | -1.11 |
| Cc1ccc([C@@H]2CN(C(=O)CCc3ccco3)C[C@H]2N(C)C)cc1 | 0.00383 |
| CC(C)Cc1ncc2c(n1)CN(c1nccc(N(C)C)n1)C2 | -8.35 |
| Cc1nc(N(C)C)nc(N2CCC3(CC2)CNC(=O)O3)c1C | -5.15 |
| O=C(c1nc(=O)[nH]c2ccccc12)N1CCCC2(CCNC2)C1 (stereo unspecified) | 8.43 |
| C1CCC(c2nnc3sc(C4CCOC4)nn23)C1 (stereo unspecified) | -13.4 |
| O=c1cc(C2CCNCC2)nc(Cc2cccc(Cl)c2)[nH]1 | -5.11 |
| Cc1[nH]c2ccc(CNc3cc(C(N)=O)ccn3)cc2c1C | -0.16 |
| CC(=O)NCC(=O)N1CCCC(C(=O)c2ccc(C(C)(C)C)cc2)C1 (stereo unspecified) | -0.592 |
| CC(C)N1CCCC(C(=O)N2CCN(c3cnn(C)c(=O)c3)CC2)C1 (stereo unspecified) | -7.17 |
| Cc1cc2ccccc2n1CCC(=O)N1CCC2(CC1)CNC(=O)C2 | 3.32 |
| CS(=O)(=O)N1CC[C@]2(O)CCN(CCCC(=O)c3ccccc3)C[C@@H]2C1 | -2.45 |

| SMILES | cytotoxicity at 70.5 h [%] |
| --- | --- |
| Cc1cccc2[nH]c(-c3cn(C4CCNCC4)nn3)nc12 | -3.11 |
| O=C(NCCn1cccn1)Nc1cc(C(=O)N2CCOCC2)ccc1Cl | -7.57 |
| Cc1nnsc1CN1C[C@H]2CC[C@@H]1CN(Cc1ccccn1)C2 | -6.51 |
| Cc1csc(CN2CC[C@@](O)(C3CCOCC3)[C@H](C)C2)n1 | -5.11 |
| Cc1nccn1-c1ccccc1CNC(=O)c1cn(CCN)nn1 | 1.29 |
| Cc1ccc([C@@H]2CN(S(=O)(=O)Cc3ccccc3)C[C@H]2N(C)C)cc1 | 1.88 |
| N#Cc1ccccc1C(=O)N1C[C@@H](CN2CCCCCC2)[C@@H](CO)C1 | -7.65 |
| Cc1ccc(C(N)=O)c(N2C[C@H]3OC(=O)N(C4CCCC4)[C@H]3C2)n1 | -11.9 |
| CSc1ccc(-c2nc(CN3CCC(CN)C3)c(C)o2)cc1 (stereo unspecified) | -3.18 |
| CCC(Nc1nc(C(C)C)nc2c1cnn2C)c1ccc(O)cc1 (stereo unspecified) | 5.5 |
| Cc1noc(CN(C)Cc2cnc(N3CCOCC3)nc2)n1 | -6.57 |
| CN(C)CC(=O)N1CCc2cccc(S(=O)(=O)N3CCOCC3)c2C1 | 0.694 |
| CN(C)Cc1nnc(C2CCN(c3ncccn3)CC2)n1C1CC1 | 12.1 |
| COc1ccc(-n2c(COC(C)C)n[nH]c2=O)cc1 | -6.26 |
| CCc1nc(CC2CN(c3ncnc4nc(C)cc(C)c34)CCO2)no1 (stereo unspecified) | -19 |
| CCNC(=O)[C@@H]1C[C@@H](N)CN1C(=O)c1[nH]c2ccccc2c1CC | 18 |
| O=S(=O)(NC1CCCN(c2ncccn2)C1)N1CCCCCC1 (stereo unspecified) | -7.28 |
| Cc1ccc(C(N)=O)c(N2Cc3cnc(C(C)(C)C)nc3C2)n1 | -11.7 |
| O=C(O)CC1COCCN1Cc1ccccc1-c1ccccc1 (stereo unspecified) | 14.8 |
| O=C(C1CCCC1)N1CCC(Nc2ccncn2)CC1 | -3.92 |
| Cc1nn(C)cc1Cn1c(=O)ccc2ccccc21 | -3.85 |
| CCc1nc(C)sc1CN1CC[C@](C)(O)[C@H](C)C1 | -2.71 |
| Cc1nc[nH]c1-c1nccn1CCN1CCCC1=O | 24.3 |

| SMILES | cytotoxicity at 70.5 h [%] |
| --- | --- |
| O=C(Cn1ccnc1)N1CCCC(OCc2cccnc2)C1 (stereo unspecified) | 29.5 |
| COCC(=O)N1CCCC(C(=O)N(C)CCn2ccnc2C)C1 (stereo unspecified) | 3.1 |
| Cc1noc(-c2ccnc(Oc3cccc(CN4CCCC4)c3F)c2)n1 | -14.1 |
| COC(=O)CCCC(=O)N(C)CC1Cc2ccccc2CN1C (stereo unspecified) | -8.82 |
| COc1cc(N2C[C@@H](C)[C@](O)(C3CC3)C2)nc(N)n1 | -3.32 |
| O=C1NCCN(C(=O)CCN2CCCO2)C1c1cccc(F)c1 (stereo unspecified) | 4.41 |
| c1ccc(CN2C[C@@H]3CC[C@H](C2)N(Cc2nnc(C4CC4)o2)C3)cc1 | -8.78 |
| CN1CC2(CCN(c3nc(N)nc4c3CCNC4)CC2)OC1=O | -8.95 |
| CCOC(=O)N[C@H]1C[C@@H](C(=O)NCc2cccc(Cl)c2)N(C)C1 | -20.9 |
| CCCC1COCCN1Cc1ccc(C(=O)O)cc1 (stereo unspecified) | -4.7 |
| CC(=O)NC1CCN(c2nc(N(C)C)nc3c2CCN(C(C)=O)C3)CC1 | -7.29 |
| Cc1c[nH]c(CN2CCCCC2CCc2cccc(O)c2)c(C)c1=O (stereo unspecified) | -5.58 |
| CN(Cc1ccc2c(c1)OCO2)C(=O)c1ccc(C2CCCO2)s1 (stereo unspecified) | -6.85 |
| COc1cccc(CNC2CCSC2)c1OC (stereo unspecified) | -7.09 |
| CN(Cc1ccccc1CN1CCCC1)c1ncnc2[nH]ccc12 | -4.3 |
| CN1CCC(NN2CCN(C)CC2)CC1 | -17.5 |
| CC1CCC(NCCCN2CCOCC2)CC1 (stereo unspecified) | -6.93 |
| Cc1noc(CN(C)C(=O)CCn2cnc3ccccc32)n1 | -13.9 |
| COc1ccc(CCC(C)Nc2cccc(SC)c2)cc1 (stereo unspecified) | 23.6 |
| CCOCc1nc2c(c(NC(COC)c3ccccn3)n1)CCNCC2 (stereo unspecified) | -3.42 |
| CNC(=O)[C@@H]1C[C@@H](N)CN1Cc1ccc2cccc(OC)c2n1 | -2.31 |
| CSCC[C@@H](CO)n1ccnc1-c1ccncc1 | -10.3 |
| Cc1ccsc1-c1nccn1CCN1CCCOC1=O | -9.87 |

| SMILES | cytotoxicity at 70.5 h [%] |
| --- | --- |
| CCN1CCN(C(=O)c2ccc3c(c2)NC(=O)CN3)[C@H]2CS(=O)(=O)C[C@H]21 | -8.61 |
| CC(C)[C@@H]1CN(C(=O)C2(c3ccccc3)CC2)C[C@H]1C(=O)O | -3.69 |
| COc1ncc(CN2CCC3(CCCN(CC4CCCCC4)C3)C2)cn1 (stereo unspecified) | 26.8 |
| CCNc1ncc(C(=O)NCc2cccc(OC(F)(F)F)c2)cn1 | -16.5 |
| c1ccc(COCCN2CCc3[nH]cnc3C2c2ccoc2)cc1 (stereo unspecified) | 26 |
| COc1ccc(-n2cnnc2CC2CCNCC2)cc1 | 1.1 |
| CCN1CCc2[nH]cnc2C12CCN(c1ccc(Cl)cn1)CC2 | -4.3 |
| CCCN1CC2(CCN(C)CC2)CC1C(=O)NCc1cc(C)nn1C (stereo unspecified) | -12.4 |
| CCC(=O)Nc1cccc(OCC(=O)N2CC=CC2C(C)C)c1 (stereo unspecified) | -22.1 |
| Cc1nonc1CN(C)c1nc(-c2ccco2)nc2c1CCN(C)CC2 | -8.33 |
| Cn1nnnc1SCCNC(=O)c1c[nH]nc1C1CCCCC1 | -9.31 |
| O=C(CCc1nc(Cl)n[nH]1)N1C[C@@H](CN2CCCCCC2)[C@@H](CO)C1 | -4.12 |
| CCn1ccnc1C1CCCN(C(=O)c2sc(C)nc2C)C1 (stereo unspecified) | -7.2 |
| Cc1ccsc1CN(CCN(C)C)C(=O)C1=NNC(=O)CC1 | -9.85 |
| Cc1nc(N2CCCC(C)C2)nc2cc(S(C)(=O)=O)ccc12 (stereo unspecified) | -2.18 |
| CCn1cc(C2=CCN(CCCOc3ccccc3)CC2)cn1 | 0.137 |
| CC1(C)OC(=O)N(CCOc2ccc(F)cc2)C1=O | -4.69 |
| Cc1cc(CN(C)C(=O)C(c2cccnc2)N2CCOCC2)n[nH]1 (stereo unspecified) | -10.1 |
| CC(Oc1ccc2c(c1)OCO2)C(=O)N1CCC(c2ncc[nH]2)CC1 (stereo unspecified) | -8.64 |
